Experimental data taken from ChEMBL document CHEMBL3885881, “DrugMatrix”.

Organism: Rattus norvegicus
Experiment: DrugMatrix - Regimen: Daily Repeat
Format: toxicity, organism-based, Sprague-Dawley
Set-up: regimen Daily Repeat, gender Male, age 6-8 weeks
Settings: in vivo, po, route oral GAVAGE, vehicle .5 % CMC; for ABSOLUTE BASOPHIL / ABSOLUTE EOSINOPHIL / ABSOLUTE LYMPHOCYTE / ABSOLUTE MONOCYTE / ABSOLUTE SEGMENTED NEUTROPHIL / BASOPHIL / EOSINOPHIL / ERYTHROCYTE COUNT / HEMATOCRIT / HEMOGLOBIN / LEUKOCYTE COUNT / LYMPHOCYTE / MEAN CORPUSCULAR HEMOGLOBIN / MEAN CORPUSCULAR HEMOGLOBIN CONCENTRATION / MEAN CORPUSCULAR VOLUME / MONOCYTE / NEUTROPHIL / NUCLEATED RED BLOOD CELLS / PLATELET COUNT: tissue Blood; for ALANINE AMINOTRANSFERASE / ALBUMIN / ALKALINE PHOSPHATASE / ASPARTATE AMINOTRANSFERASE / BLOOD UREA NITROGEN / CARBON DIOXIDE / CHLORIDE / CHOLESTEROL / CREATINE PHOSPHOKINASE / CREATININE / GLUCOSE / LACTATE DEHYDROGENASE / LIPASE / PHOSPHORUS / POTASSIUM / SODIUM / TOTAL BILIRUBIN / TOTAL PROTEIN / URIC ACID: tissue Plasma
[1] = 0 mg/kg, 72 h, dose level Control, time 3 day
[2] = 0 mg/kg, 120 h, dose level Control, time 5 day
[3] = 50 mg/kg, 72 h, dose level Low, time 3 day

CNC(=C[N+](=O)[O-])NCCSCc1ccc(CN(C)C)o1 [RANITIDINE]
ABSOLUTE BASOPHIL [1]: 0 CELLS/uL
ABSOLUTE EOSINOPHIL [1]: 0 CELLS/uL
ABSOLUTE LYMPHOCYTE [1]: 12269.67 CELLS/uL
ABSOLUTE MONOCYTE [1]: 160.33 CELLS/uL
ABSOLUTE SEGMENTED NEUTROPHIL [1]: 970 CELLS/uL
BASOPHIL [1]: 0%
EOSINOPHIL [1]: 0%
ERYTHROCYTE COUNT [1]: 5.76 x10E6/uL
HEMATOCRIT [1]: 36.57%
HEMOGLOBIN [1]: 14.22 G/DL
LEUKOCYTE COUNT [1]: 13.4 x10E3/uL
LYMPHOCYTE [1]: 91.67%
MEAN CORPUSCULAR HEMOGLOBIN [1]: 24.67 pg
MEAN CORPUSCULAR HEMOGLOBIN CONCENTRATION [1]: 38.85 G/DL
MEAN CORPUSCULAR VOLUME [1]: 63.52 fL
MONOCYTE [1]: 1.17%
NEUTROPHIL [1]: 7.17%
NUCLEATED RED BLOOD CELLS [1]: 0.33 /100WBC
PLATELET COUNT [1]: 1250.83 x10E3/uL
ALANINE AMINOTRANSFERASE [1]: 49.17 u/L
ALBUMIN [1]: 4.33 G/DL
ALKALINE PHOSPHATASE [1]: 378.5 u/L
ASPARTATE AMINOTRANSFERASE [1]: 82.17 u/L
BLOOD UREA NITROGEN [1]: 15 mg/dL
CARBON DIOXIDE [1]: 34.33 mmol/L
CHLORIDE [1]: 99.17 MEQ/L
CHOLESTEROL [1]: 71.17 mg/dL
CREATINE PHOSPHOKINASE [1]: 258.67 u/L
CREATININE [1]: 0.18 mg/dL
GLUCOSE [1]: 142.67 mg/dL
LACTATE DEHYDROGENASE [1]: 154.33 u/L
LIPASE [1]: 9 u/L
PHOSPHORUS [1]: 11.67 mg/dL
POTASSIUM [1]: 7.13 MEQ/L
SODIUM [1]: 142.22 MEQ/L
TOTAL BILIRUBIN [1]: 0.18 mg/dL
TOTAL PROTEIN [1]: 5.77 G/DL
URIC ACID [1]: 1.55 mg/dL
ABSOLUTE BASOPHIL [2]: 0 CELLS/uL
ABSOLUTE EOSINOPHIL [2]: 23.33 CELLS/uL
ABSOLUTE LYMPHOCYTE [2]: 14943.67 CELLS/uL
ABSOLUTE MONOCYTE [2]: 32 CELLS/uL
ABSOLUTE SEGMENTED NEUTROPHIL [2]: 1084.33 CELLS/uL
BASOPHIL [2]: 0%
EOSINOPHIL [2]: 0.17%
ERYTHROCYTE COUNT [2]: 5.71 x10E6/uL
HEMATOCRIT [2]: 35.28%
HEMOGLOBIN [2]: 14.27 G/DL
LEUKOCYTE COUNT [2]: 16.08 x10E3/uL
LYMPHOCYTE [2]: 93%
MEAN CORPUSCULAR HEMOGLOBIN [2]: 25.02 pg
MEAN CORPUSCULAR HEMOGLOBIN CONCENTRATION [2]: 40.43 G/DL
MEAN CORPUSCULAR VOLUME [2]: 61.82 fL
MONOCYTE [2]: 0.17%
NEUTROPHIL [2]: 6.67%
NUCLEATED RED BLOOD CELLS [2]: 0.33 /100WBC
PLATELET COUNT [2]: 1274 x10E3/uL
ALANINE AMINOTRANSFERASE [2]: 54.17 u/L
ALBUMIN [2]: 4.22 G/DL
ALKALINE PHOSPHATASE [2]: 373.17 u/L
ASPARTATE AMINOTRANSFERASE [2]: 81.83 u/L
BLOOD UREA NITROGEN [2]: 16.67 mg/dL
CARBON DIOXIDE [2]: 30.33 mmol/L
CHLORIDE [2]: 99 MEQ/L
CHOLESTEROL [2]: 71 mg/dL
CREATINE PHOSPHOKINASE [2]: 273.5 u/L
CREATININE [2]: 0.22 mg/dL
GLUCOSE [2]: 141.83 mg/dL
LACTATE DEHYDROGENASE [2]: 153.67 u/L
LIPASE [2]: 10.33 u/L
PHOSPHORUS [2]: 11.38 mg/dL
POTASSIUM [2]: 7.08 MEQ/L
SODIUM [2]: 142.75 MEQ/L
TOTAL BILIRUBIN [2]: 0.18 mg/dL
TOTAL PROTEIN [2]: 6.1 G/DL
URIC ACID [2]: 1.67 mg/dL
ABSOLUTE BASOPHIL [3]: 0 CELLS/uL
ABSOLUTE EOSINOPHIL [3]: 82.33 CELLS/uL
ABSOLUTE LYMPHOCYTE [3]: 12453.33 CELLS/uL
ABSOLUTE MONOCYTE [3]: 303 CELLS/uL
ABSOLUTE SEGMENTED NEUTROPHIL [3]: 1061.33 CELLS/uL
BASOPHIL [3]: 0%
EOSINOPHIL [3]: 0.67%
ERYTHROCYTE COUNT [3]: 5.58 x10E6/uL
HEMATOCRIT [3]: 36.1%
HEMOGLOBIN [3]: 14.47 G/DL
LEUKOCYTE COUNT [3]: 13.9 x10E3/uL
LYMPHOCYTE [3]: 89.67%
MEAN CORPUSCULAR HEMOGLOBIN [3]: 25.9 pg
MEAN CORPUSCULAR HEMOGLOBIN CONCENTRATION [3]: 40.1 G/DL
MEAN CORPUSCULAR VOLUME [3]: 64.73 fL
MONOCYTE [3]: 2%
NEUTROPHIL [3]: 7.67%
NUCLEATED RED BLOOD CELLS [3]: 0.33 /100WBC
PLATELET COUNT [3]: 1180.67 x10E3/uL
ALANINE AMINOTRANSFERASE [3]: 50.67 u/L
ALBUMIN [3]: 4.17 G/DL
ALKALINE PHOSPHATASE [3]: 358 u/L
ASPARTATE AMINOTRANSFERASE [3]: 90.67 u/L
BLOOD UREA NITROGEN [3]: 16.33 mg/dL
CARBON DIOXIDE [3]: 27.33 mmol/L
CHLORIDE [3]: 101.33 MEQ/L
CHOLESTEROL [3]: 81.67 mg/dL
CREATINE PHOSPHOKINASE [3]: 304 u/L
CREATININE [3]: 0.2 mg/dL
GLUCOSE [3]: 157.33 mg/dL
LACTATE DEHYDROGENASE [3]: 312 u/L
LIPASE [3]: 10 u/L
PHOSPHORUS [3]: 15.03 mg/dL
POTASSIUM [3]: 7.11 MEQ/L
SODIUM [3]: 147.4 MEQ/L
TOTAL BILIRUBIN [3]: 0.2 mg/dL
TOTAL PROTEIN [3]: 5.83 G/DL
URIC ACID [3]: 2.3 mg/dL
